Calls of active or inactive are those of the source. Unless noted, the calls are words filed in the database; no cut-off is given here.
How the values were obtained:
[1] = target: Type-1 angiotensin II receptor (Homo sapiens, UniProt P30556); assay: AT1 receptor antagonists, dose response, selectivity assay for APJ receptor antagonist project, cell-based, uHTS hits (AID 463214); assay type: functional;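 further: antagonist potency against angiotensin II stimulated AT1 response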
Beta-galactosidase = Beta-galactosidase (Escherichia coli, UniProt Q8VNN2); assay: PubChem AID 485352; assay type: functional
[2] = target: T1, Potassium voltage-gated channel subfamily KQT member 4 (Homo sapiens, UniProt P56696); assay: KCNQ4 channel modulation, potentiation or inhibition, dose response, selectivity assay for KCNQ2 activator project, thallium flux, KCNQ4-expressing cells (AID 504416); assay type: functional, cell-based
[3] = target: Potassium voltage-gated channel subfamily KQT member 2/member 3 (Rattus norvegicus, UniProt O88943+O88944); assay: Mode of action assay-Dose response assay for KCNQ2 activators in the KCNQ2/KCNQ3 co-expressing cells on automated patch clamp. [Related pubchem assays (depositor defined):AID2239, AID2258, AID2287]; assay type: functional
[4] = target: T1, Potassium voltage-gated channel subfamily KQT member 4; assay: human KCNQ4 channel current potentiation, dose response, selectivity assay for KCNQ2 activator project, automated patch clamp, CHO cells (AID 493043); assay type: functional, cell-based
[5] = target: Potassium voltage-gated channel subfamily KQT member 2 (Rattus norvegicus, UniProt O88943); assay: Mode of action assay-Dose response assay for compounds that activate KCNQ2 potassium channels on automated patch clamp. [Related pubchem assays (depositor defined):AID2239, AID2258, AID2287, AID493113]; assay type: functional
[6] = target: Dual specificity protein kinase CLK1 (Homo sapiens, UniProt P49759); assay: CLK1 kinase inhibitors, off-target check, dose response, selectivity assay for Dyrk1A inhibitor project, biochemical, cherry-picked samples (AID 588811)
HeLa = assay: HeLa cell cytotoxicity, dose response, cytotoxicity control, 48 h, plate reader, cherry-picks (AID 504942); assay type: functional, cell-based; conditions: Homo sapiens
[7] = target: Acyl-homoserine lactone acylase PvdQ (Pseudomonas aeruginosa (strain LESB58), UniProt Q9I194); assay: P. aeruginosa PvdQ acylase inhibitors, dose response, biochemical, fluorescence, plate reader and imaging, cherry-picks (AID 493231)
Chain of Acyl-homoserine lactone acylase PvdQ (Q9I194 24-193 limits assumed): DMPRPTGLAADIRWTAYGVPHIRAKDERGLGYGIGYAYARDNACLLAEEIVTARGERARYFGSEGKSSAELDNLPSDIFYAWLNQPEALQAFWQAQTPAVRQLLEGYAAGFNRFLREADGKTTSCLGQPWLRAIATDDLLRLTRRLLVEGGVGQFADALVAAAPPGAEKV
Chain of Acyl-homoserine lactone acylase PvdQ (Q9I194 217-762 limits assumed): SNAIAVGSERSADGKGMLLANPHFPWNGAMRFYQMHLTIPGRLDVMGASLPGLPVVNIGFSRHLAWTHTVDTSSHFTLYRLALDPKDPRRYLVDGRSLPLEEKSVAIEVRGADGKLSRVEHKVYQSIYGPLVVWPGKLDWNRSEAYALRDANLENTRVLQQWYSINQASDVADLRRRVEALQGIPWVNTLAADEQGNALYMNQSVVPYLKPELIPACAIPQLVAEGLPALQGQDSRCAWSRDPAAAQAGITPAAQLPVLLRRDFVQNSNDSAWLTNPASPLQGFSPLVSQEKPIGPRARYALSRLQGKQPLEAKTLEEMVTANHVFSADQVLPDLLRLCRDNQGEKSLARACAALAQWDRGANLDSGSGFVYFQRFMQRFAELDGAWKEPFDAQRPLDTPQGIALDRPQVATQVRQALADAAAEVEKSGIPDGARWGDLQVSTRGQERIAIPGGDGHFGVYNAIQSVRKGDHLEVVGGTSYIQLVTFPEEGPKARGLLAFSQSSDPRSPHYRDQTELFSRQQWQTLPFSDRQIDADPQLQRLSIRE

T1 sequence (P56696 whole entry): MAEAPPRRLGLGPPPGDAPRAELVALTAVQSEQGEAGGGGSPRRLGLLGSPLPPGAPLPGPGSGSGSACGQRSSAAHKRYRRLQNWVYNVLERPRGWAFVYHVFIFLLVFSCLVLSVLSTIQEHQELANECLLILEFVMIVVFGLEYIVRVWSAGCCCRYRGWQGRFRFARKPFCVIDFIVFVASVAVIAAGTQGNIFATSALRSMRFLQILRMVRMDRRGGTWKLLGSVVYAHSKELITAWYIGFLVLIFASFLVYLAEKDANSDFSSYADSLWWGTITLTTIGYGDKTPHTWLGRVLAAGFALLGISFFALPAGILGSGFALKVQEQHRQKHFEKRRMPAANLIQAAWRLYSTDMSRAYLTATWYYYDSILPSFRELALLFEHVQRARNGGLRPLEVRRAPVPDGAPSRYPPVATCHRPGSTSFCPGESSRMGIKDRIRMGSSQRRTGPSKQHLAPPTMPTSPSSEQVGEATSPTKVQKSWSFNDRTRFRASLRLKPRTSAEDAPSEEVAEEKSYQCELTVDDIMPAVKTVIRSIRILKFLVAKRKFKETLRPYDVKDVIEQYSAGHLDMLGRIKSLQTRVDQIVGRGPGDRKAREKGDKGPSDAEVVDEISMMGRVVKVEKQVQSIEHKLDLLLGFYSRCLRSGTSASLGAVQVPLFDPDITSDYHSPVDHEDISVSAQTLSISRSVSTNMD
Chain of Type-1 angiotensin II receptor (P30556 whole entry): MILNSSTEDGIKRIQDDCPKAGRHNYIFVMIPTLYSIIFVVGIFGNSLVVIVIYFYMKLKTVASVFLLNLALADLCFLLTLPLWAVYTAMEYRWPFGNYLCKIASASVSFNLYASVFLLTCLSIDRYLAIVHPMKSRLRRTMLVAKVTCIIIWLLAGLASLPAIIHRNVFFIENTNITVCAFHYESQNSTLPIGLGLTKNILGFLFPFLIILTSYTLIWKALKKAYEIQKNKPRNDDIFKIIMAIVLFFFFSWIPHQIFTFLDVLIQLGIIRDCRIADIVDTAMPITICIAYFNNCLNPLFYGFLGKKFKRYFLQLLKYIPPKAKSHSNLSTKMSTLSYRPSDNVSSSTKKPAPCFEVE
Chain of Dual specificity protein kinase CLK1 (P49759 whole entry): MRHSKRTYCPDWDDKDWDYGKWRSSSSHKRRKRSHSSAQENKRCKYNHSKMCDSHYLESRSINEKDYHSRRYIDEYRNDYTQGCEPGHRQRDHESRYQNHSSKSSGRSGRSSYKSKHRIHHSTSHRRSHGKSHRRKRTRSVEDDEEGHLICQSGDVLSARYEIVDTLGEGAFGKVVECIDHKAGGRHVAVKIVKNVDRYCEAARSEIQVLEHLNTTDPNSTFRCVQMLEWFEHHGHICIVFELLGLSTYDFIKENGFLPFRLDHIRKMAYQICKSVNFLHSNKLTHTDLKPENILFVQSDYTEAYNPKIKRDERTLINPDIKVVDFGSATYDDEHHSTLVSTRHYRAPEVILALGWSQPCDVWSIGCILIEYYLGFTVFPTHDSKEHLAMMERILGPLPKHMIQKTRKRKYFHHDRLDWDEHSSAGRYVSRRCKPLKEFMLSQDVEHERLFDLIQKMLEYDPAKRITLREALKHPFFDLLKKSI
Chain of Potassium voltage-gated channel subfamily KQT member 2/member 3 (O88943 whole entry): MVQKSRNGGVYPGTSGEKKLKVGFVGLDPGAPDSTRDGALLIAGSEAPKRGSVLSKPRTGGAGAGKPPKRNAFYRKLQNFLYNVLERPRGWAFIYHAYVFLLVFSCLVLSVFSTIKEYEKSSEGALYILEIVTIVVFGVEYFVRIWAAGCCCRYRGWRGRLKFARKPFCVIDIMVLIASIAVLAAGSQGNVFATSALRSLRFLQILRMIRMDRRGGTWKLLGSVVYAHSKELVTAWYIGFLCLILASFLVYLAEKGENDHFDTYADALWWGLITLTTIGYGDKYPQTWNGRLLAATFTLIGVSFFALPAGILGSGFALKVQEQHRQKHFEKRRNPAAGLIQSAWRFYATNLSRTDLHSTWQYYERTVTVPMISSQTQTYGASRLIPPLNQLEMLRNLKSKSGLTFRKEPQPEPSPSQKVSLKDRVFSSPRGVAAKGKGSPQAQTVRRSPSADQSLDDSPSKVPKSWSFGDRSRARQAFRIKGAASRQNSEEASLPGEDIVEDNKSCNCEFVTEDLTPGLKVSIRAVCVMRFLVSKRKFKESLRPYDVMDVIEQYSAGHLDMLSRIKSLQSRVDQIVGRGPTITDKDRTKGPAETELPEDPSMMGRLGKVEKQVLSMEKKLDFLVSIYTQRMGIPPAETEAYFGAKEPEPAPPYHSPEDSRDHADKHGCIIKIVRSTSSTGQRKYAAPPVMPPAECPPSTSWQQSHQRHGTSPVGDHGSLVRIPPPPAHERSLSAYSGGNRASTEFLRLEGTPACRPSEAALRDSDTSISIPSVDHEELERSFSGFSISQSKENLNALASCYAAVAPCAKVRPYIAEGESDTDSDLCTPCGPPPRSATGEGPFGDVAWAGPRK
Chain of Potassium voltage-gated channel subfamily KQT member 2/member 3 (O88944 whole entry): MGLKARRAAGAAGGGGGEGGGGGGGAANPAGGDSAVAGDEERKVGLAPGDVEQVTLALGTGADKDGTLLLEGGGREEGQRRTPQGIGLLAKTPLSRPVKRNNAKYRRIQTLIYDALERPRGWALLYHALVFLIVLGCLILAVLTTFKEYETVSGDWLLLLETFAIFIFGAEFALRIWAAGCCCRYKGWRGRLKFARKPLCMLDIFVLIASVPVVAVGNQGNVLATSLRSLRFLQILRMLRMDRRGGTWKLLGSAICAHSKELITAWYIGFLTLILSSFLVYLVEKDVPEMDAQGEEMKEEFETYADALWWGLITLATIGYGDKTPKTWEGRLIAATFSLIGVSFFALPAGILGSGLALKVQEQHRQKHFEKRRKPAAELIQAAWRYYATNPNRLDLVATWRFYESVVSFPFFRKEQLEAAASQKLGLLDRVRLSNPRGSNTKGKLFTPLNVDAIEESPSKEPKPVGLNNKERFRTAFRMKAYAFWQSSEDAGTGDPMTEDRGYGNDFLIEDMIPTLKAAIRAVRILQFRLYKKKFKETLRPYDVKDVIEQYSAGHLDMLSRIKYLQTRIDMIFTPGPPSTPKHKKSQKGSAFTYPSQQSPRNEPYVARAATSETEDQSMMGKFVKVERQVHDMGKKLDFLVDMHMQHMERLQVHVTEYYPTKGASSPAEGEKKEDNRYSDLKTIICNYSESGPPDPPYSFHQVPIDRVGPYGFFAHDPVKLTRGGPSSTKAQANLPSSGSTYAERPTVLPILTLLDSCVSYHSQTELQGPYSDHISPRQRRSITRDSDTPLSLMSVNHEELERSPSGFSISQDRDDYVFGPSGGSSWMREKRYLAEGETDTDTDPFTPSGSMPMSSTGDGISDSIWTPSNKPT
Chain of Potassium voltage-gated channel subfamily KQT member 2 (O88943 whole entry): as the sequence (O88943 whole entry) above

**Q.** What does the source list for `CC(=O)Oc1ccc(/C=C2/SC(=S)N(Cc3ccccc3)C2=O)cc1`?
**A.** IC50 [1]: > 40 µM (not active); EC50 (Beta-galactosidase): > 40 µM (inactive)

**Q.** For `CCCCC(=O)Nc1c(C)cc(C)cc1Cl`, which EC50 [2] is on record?
**A.** 18.7 µM (active)

**Q.** What about the EC50 [3] of the same compound?
**A.** 2.69 µM (active)

**Q.** What about the EC50 [4] of the same compound?
**A.** 3.15 µM (active)

**Q.** What about the EC50 [5] of the same compound?
**A.** 2.14 µM (active)

**Q.** For `CN(C)S(=O)(=O)c1ccc(Cl)c(C(=O)Nc2cccc3ncccc23)c1`, which AC50 [6] is on record?
**A.** 1.84 µM (active)

**Q.** Which AC50 (HeLa) does the source give for `O=C(Nc1ncc([N+](=O)[O-])s1)c1cccc([N+](=O)[O-])c1` here?
**A.** 23.1 µM (active)

**Q.** What about the AC50 [7] of the same compound?
**A.** 10.3 µM (active)

From ChEMBL document CHEMBL1201862, “PubChem BioAssay data set” (2004)
